The results in this text go back to patent publication US9708334B2, “Substituted 2,4,5,6-tetrahydropyrrolo[3,4-c]pyrazole and 4,5,6,7-tetrahydro-2H-pyrazolo[4,3-c]pyridine compounds as GlyT1 inhibitors” (DART NEUROSCIENCE (CAYMAN) LTD., priority 2014, dated 2017).

The test addresses T1, GlyT1 (Homo sapiens, UniProt P48067).
T1 construct: expressed in transfected cells
T1 sequence (P48067 1-706): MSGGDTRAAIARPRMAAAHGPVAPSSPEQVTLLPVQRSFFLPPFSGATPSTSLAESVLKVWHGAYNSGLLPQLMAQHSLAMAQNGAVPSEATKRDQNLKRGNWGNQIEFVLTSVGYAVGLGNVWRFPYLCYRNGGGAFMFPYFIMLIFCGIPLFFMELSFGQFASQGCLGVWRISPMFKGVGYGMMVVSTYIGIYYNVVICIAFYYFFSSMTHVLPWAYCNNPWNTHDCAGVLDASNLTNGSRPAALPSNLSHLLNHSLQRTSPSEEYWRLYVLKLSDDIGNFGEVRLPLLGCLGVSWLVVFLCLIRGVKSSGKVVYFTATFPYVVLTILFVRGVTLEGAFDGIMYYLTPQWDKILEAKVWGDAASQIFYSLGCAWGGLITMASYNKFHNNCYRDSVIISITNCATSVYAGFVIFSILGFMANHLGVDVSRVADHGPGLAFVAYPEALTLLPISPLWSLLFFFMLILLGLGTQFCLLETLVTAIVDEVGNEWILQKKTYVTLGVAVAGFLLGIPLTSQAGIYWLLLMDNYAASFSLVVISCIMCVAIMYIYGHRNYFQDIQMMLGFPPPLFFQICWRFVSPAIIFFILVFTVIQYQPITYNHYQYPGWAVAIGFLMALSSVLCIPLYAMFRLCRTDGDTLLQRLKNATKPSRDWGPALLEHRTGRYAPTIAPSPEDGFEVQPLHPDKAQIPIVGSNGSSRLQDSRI
Put plainly: Glycine Transporter 1 (GlyT1) uptake assay, scintillation proximity assay of [14C]-glycine uptake. In kind it is cell-based. The following applies: SPA, four parameter logistic fit, read-out: GlyT1 (pIC50) (converted). The method in brief:
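[14C]-glycine uptake read by scintillation proximity on a plate counter. IC50 from four-parameter logistic fit of dose-response data.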
(In a scintillation proximity assay essentially only radioactivity close to the scintillant gives light.)
In the case of `CS(=O)(=O)c1ccc(N2CCC(F)(F)C2)c(C(=O)N2CCc3nn(-c4ccccc4)cc3C2)c1` [Example 496, 3 3-Difluoro-1-(4-methanesulfonyl-2-{2-phenyl-2H 4H 5H 6H 7H-pyrazolo[4,3-c]pyridine-5-carbonyl}phenyl)pyrrolidine], the IC50 is 100 to 1000 nM.
As to `CC(C)(C)COc1ccc(S(C)(=O)=O)cc1C(=O)N1CCc2nn(-c3ccccc3)cc2C1` [Example 497, 5-[2-(2 2-Dimethylpropoxy)-5-methanesulfonylbenzoyl]-2-phenyl-2H 4H 5H 6H 7H-pyrazolo[4,3-c]pyridine], the IC50 was 100 to 1000 nM.
The value for `CS(=O)(=O)c1ccc(N2CCCC2)c(C(=O)N2CCc3nn(-c4ccccc4)cc3C2)c1` [Example 498, 1-(4-Methanesulfonyl-2-{2-phenyl-2H 4H 5H 6H 7H-pyrazolo[4,3-c]pyridine-5-carbonyl}phenyl)pyrrolidine] was 1000 to 10000 nM; that for `CS(=O)(=O)c1ccc(N2CCC2)c(C(=O)N2CCc3nn(-c4ccccc4)cc3C2)c1` [Example 499, 1-(4-Methanesulfonyl-2-{2-phenyl-2H 4H 5H 6H 7H-pyrazolo[4,3-c]pyridine-5-carbonyl}phenyl)azetidine] was over 10000 nM; that for `CS(=O)(=O)c1ccc(OCC2CC2)c(C(=O)N2CCc3nn(-c4ccccc4)cc3C2)c1` [Example 500, 5-[2-(Cyclopropylmethoxy)-5-methanesulfonylbenzoyl]-2-phenyl-2H 4H 5H 6H 7H-pyrazolo[4,3-c]pyridine] was 1000 to 10000 nM.
Take `CC(Oc1ccc(C#N)c(Cl)c1C(=O)N1CCc2c(cnn2-c2ccc(F)cc2)C1)C(F)(F)F` (centres unmarked) [Example 501, 2-Chloro-3-[1-(4-fluorophenyl)-1H 4H 5H 6H 7H-pyrazolo[4,3-c]pyridine-5-carbonyl]-4-[(1 1 1-trifluoropropan-2-yl)oxy]benzonitrile]: the IC50 was 100 to 1000 nM.
Under `N#Cc1ccc(N2CCC(F)(F)CC2)c(C(=O)N2CCc3nn(-c4ccccc4)cc3C2)c1Cl` [Example 502, 2-Chloro-4-(4 4-difluoropiperidin-1-yl)-3-{2-phenyl-2H 4H 5H 6H 7H-pyrazolo[4,3-c]pyridine-5-carbonyl}benzonitrile] stands 100 to 1000 nM.
The value for `CC(C)(C)COc1ccc(C#N)c(Cl)c1C(=O)N1CCc2nn(-c3ccccc3)cc2C1` [Example 503, 2-Chloro-4-(2 2-dimethylpropoxy)-3-{2-phenyl-2H 4H 5H 6H 7H-pyrazolo[4,3-c]pyridine-5-carbonyl}benzonitrile] was 100 to 1000 nM.
Under `N#Cc1ccc(OCC2CC2)c(C(=O)N2CCc3nn(-c4ccccc4)cc3C2)c1Cl` [Example 504, 2-Chloro-4-(cyclopropylmethoxy)-3-{2-phenyl-2H 4H 5H 6H 7H-pyrazolo[4,3-c]pyridine-5-carbonyl}benzonitrile] stands 1000 to 10000 nM; under `N#Cc1ccc(N2CCOCC2)c(C(=O)N2CCc3nn(-c4ccccc4)cc3C2)c1Cl` [Example 505, 2-Chloro-4-(morpholin-4-yl)-3-{2-phenyl-2H 4H 5H 6H 7H-pyrazolo[4,3-c]pyridine-5-carbonyl}benzonitrile], 1000 to 10000 nM.
In the case of `CC1(COc2ccc(C#N)c(Cl)c2C(=O)N2CCc3nn(-c4ccccc4)cc3C2)COC1` [Example 506, 2-Chloro-4-[(3-methyloxetan-3-yl)methoxy]-3-{2-phenyl-2H 4H 5H 6H 7H-pyrazolo[4,3-c]pyridine-5-carbonyl}benzonitrile], the IC50 was 1000 to 10000 nM.
The value for `CC1(COc2ccc(C#N)c(Cl)c2C(=O)N2CCc3nn(-c4ccccc4)cc3C2)CC1` [Example 507, 2-Chloro-4-[(1-methylcyclopropyl)methoxy]-3-{2-phenyl-2H 4H 5H 6H 7H-pyrazolo[4,3-c]pyridine-5-carbonyl}benzonitrile] was 100 to 1000 nM; that for `CC1(COc2ccc(C#N)c(Cl)c2C(=O)N2CCc3nn(-c4ccc(F)cc4)cc3C2)CC1` [Example 508, 2-Chloro-3-[2-(4-fluorophenyl)-2H 4H 5H 6H 7H-pyrazolo[4,3-c]pyridine-5-carbonyl]-4-[(1-methylcyclopropyl)methoxy]benzonitrile] was 100 to 1000 nM.
Under `N#Cc1ccc(OCC2(C(F)(F)F)CC2)c(C(=O)N2CCc3nn(-c4ccc(F)cc4)cc3C2)c1Cl` [Example 509, 2-Chloro-3-[2-(4-fluorophenyl)-2H 4H 5H 6H 7H-pyrazolo[4,3-c]pyridine-5-carbonyl]-4-{[1-(trifluoromethyl)cyclopropyl]methoxy}benzonitrile] stands 100 to 1000 nM; under `COc1c(C#N)ccc(N2CCC(F)(F)CC2)c1C(=O)N1Cc2cn(-c3ccc(F)cc3)nc2C1` [Example 510, 4-(4 4-Difluoropiperidin-1-yl)-3-[2-(4-fluorophenyl)-2H 4H 5H 6H-pyrrolo[3,4-c]pyrazole-5-carbonyl]-2-methoxybenzonitrile], under 100 nM.
Under `COc1c(C#N)ccc(OCC(C)(C)C)c1C(=O)N1Cc2cn(-c3ccc(F)cc3)nc2C1` [Example 511] stands under 100 nM.
With `COc1c(C#N)ccc(OCC2(C)CC2)c1C(=O)N1Cc2cn(-c3ccc(F)cc3)nc2C1` [Example 512, 3-[2-(4-Fluorophenyl)-2H 4H 5H 6H-pyrrolo[3,4-c]pyrazole-5-carbonyl]-2-methoxy-4-[(1-methylcyclopropyl)methoxy]benzonitrile], the IC50 was under 100 nM.
As to `COc1c(C#N)ccc(OC2CCCC2)c1C(=O)N1Cc2cn(-c3ccc(F)cc3)nc2C1` [Example 513, 4-(Cyclopentyloxy)-3-[2-(4-fluorophenyl)-2H 4H 5H 6H-pyrrolo[3,4-c]pyrazole-5-carbonyl]-2-methoxybenzonitrile], the IC50 was under 100 nM.
As to `COc1c(C#N)ccc(N2CCC(F)(F)C2)c1C(=O)N1Cc2cn(-c3ccc(F)cc3)nc2C1` [Example 514, 4-(3 3-Difluoropyrrolidin-1-yl)-3-[2-(4-fluorophenyl)-2H 4H 5H 6H-pyrrolo[3,4-c]pyrazole-5-carbonyl]-2-methoxybenzonitrile], the IC50 is under 100 nM.
Under `COc1c(C#N)ccc(OC(C)C)c1C(=O)N1Cc2cn(-c3ccc(F)cc3)nc2C1` [Example 515, 3-[2-(4-Fluorophenyl)-2H 4H 5H 6H-pyrrolo[3,4-c]pyrazole-5-carbonyl]-2-methoxy-4-(propan-2-yloxy)benzonitrile] stands under 100 nM; under `COc1c(C#N)ccc(OC(C)(C)C(F)(F)F)c1C(=O)N1Cc2cn(-c3ccc(F)cc3)nc2C1` [Example 516, 3-[2-(4-Fluorophenyl)-2H 4H 5H 6H-pyrrolo[3,4-c]pyrazole-5-carbonyl]-2-methoxy-4-[(1 1 1-trifluoro-2-methylpropan-2-yl)oxy]benzonitrile], under 100 nM.
Under `COc1c(C#N)ccc(OC(C)CF)c1C(=O)N1Cc2cn(-c3ccc(F)cc3)nc2C1` (centres unmarked) [Example 517, 3-[2-(4-Fluorophenyl)-2H 4H 5H 6H-pyrrolo[3,4-c]pyrazole-5-carbonyl]-4-[(1-fluoropropan-2-yl)oxy]-2-methoxybenzonitrile] stands under 100 nM.
The value for `CCC(CC)Oc1ccc(C#N)c(OC)c1C(=O)N1Cc2cn(-c3ccc(F)cc3)nc2C1` [Example 518, 3-[2-(4-Fluorophenyl)-2H 4H 5H 6H-pyrrolo[3,4-c]pyrazole-5-carbonyl]-2-methoxy-4-(pentan-3-yloxy)benzonitrile] was under 100 nM.
`COc1c(C#N)ccc(OC2COC2)c1C(=O)N1Cc2cn(-c3ccc(F)cc3)nc2C1` [Example 519, 3-[2-(4-Fluorophenyl)-2H 4H 5H 6H-pyrrolo[3,4-c]pyrazole-5-carbonyl]-2-methoxy-4-(oxetan-3-yloxy)benzonitrile]: the IC50 is under 100 nM.
The value for `COc1c(C#N)ccc(OCC(F)F)c1C(=O)N1Cc2cn(-c3ccc(F)cc3)nc2C1` [Example 520, 4-(2 2-Difluoroethoxy)-3-[2-(4-fluorophenyl)-2H 4H 5H 6H-pyrrolo[3,4-c]pyrazole-5-carbonyl]-2-methoxybenzonitrile] was under 100 nM; that for `CCCC(C)Oc1ccc(C#N)c(OC)c1C(=O)N1Cc2cn(-c3ccc(F)cc3)nc2C1` (centres unmarked) [Example 521, 3-[2-(4-Fluorophenyl)-2H 4H 5H 6H-pyrrolo[3,4-c]pyrazole-5-carbonyl]-2-methoxy-4-(pentan-2-yloxy)benzonitrile] was 100 to 1000 nM; that for `COc1c(C#N)ccc(OCC(C)C)c1C(=O)N1Cc2cn(-c3ccc(F)cc3)nc2C1` [Example 522, 3-[2-(4-Fluorophenyl)-2H 4H 5H 6H-pyrrolo[3,4-c]pyrazole-5-carbonyl]-2-methoxy-4-(2-methylpropoxy)benzonitrile] was under 100 nM.
The value for `COc1c(C#N)ccc(OC(C)C(C)C)c1C(=O)N1Cc2cn(-c3ccc(F)cc3)nc2C1` (centres unmarked) [Example 523, 3-[2-(4-Fluorophenyl)-2H 4H 5H 6H-pyrrolo[3,4-c]pyrazole-5-carbonyl]-2-methoxy-4-[(3-methylbutan-2-yl)oxy]benzonitrile] was under 100 nM; that for `COc1c(C#N)ccc(OC(C)C2CC2)c1C(=O)N1Cc2cn(-c3ccc(F)cc3)nc2C1` (centres unmarked) [Example 524, 4-(1-Cyclopropylethoxy)-3-[2-(4-fluorophenyl)-2H 4H 5H 6H-pyrrolo[3,4-c]pyrazole-5-carbonyl]-2-methoxybenzonitrile] was under 100 nM.
